Assay: gradient 5% acetonitrile 3 min, to 50% in 2 min, to 85% in 15 min, held 3 min, 100 µL/min
Conditions: column: Zorbax Extend-C18 2.1 x 50 mm; eluents: water / acetonitrile, 0.1% formic acid
Method in brief: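 Retention times of pure standards were taken from adduct peaks that were selected by computer and manually inspected. Over 3 months, mixtures of ~100 molecules were run by HPLC–quadrupole time-of-flight mass spectrometry in positive and negative ionization mode. The Zorbax Extend-C18 column (2.1 × 50 mm, 1.8 μm) ran at 100 μL/min in water and acetonitrile, each containing 0.1% formic acid, with 40 μL dead volume and 900 μL dwell volume.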

Point of comparison: `CC(C)N1CC(CNC(=O)c2ccco2)C2(CCCCC2)C1` (centres undefined), RP-LC retention time 593 s. Against it:
- OCCNCCNCc1ccc(-c2ccccc2F)o1 — lower, 563 s
- O=C(Cc1ccc(F)cc1)Nc1nc(-c2ccccc2)cs1 — higher, 988 s
- O=C(Nc1ccc(Cl)c(Cl)c1)Nc1ccc([N+](=O)[O-])cn1 — higher, 1100 s
- CCN1CCN(C(=O)C2CCN(S(=O)(=O)c3c(C)nn(-c4ccc(Cl)cc4)c3C)CC2)CC1 — higher, 670 s
- CCOC(=O)c1c(C)oc2nc(C)nc(Nc3cc(C)ccc3OC)c12 — higher, 1350 s
- Cc1ccc(N(C)C(=O)C2CCN(S(=O)(=O)c3ccc(-c4noc(C5CC5)n4)cc3)CC2)cc1 — higher, 1100 s
- CCOC(=O)c1ccc(NC(=O)N2CCN(c3nc4ccccc4n3C)CC2)cc1 — higher, 658 s
- Cc1ccc2c(Nc3ccc4c(c3)OCCO4)c(C(=O)N3CCCCC3C)cnc2n1 (centres undefined) — higher, 623 s
- CCc1nc(N2CCC(C(=O)NCc3cc(OC)ccc3OC)CC2)c2c(C)scc2n1 — higher, 691 s
- CN(C)c1ccc(C(=O)NC2CCN(c3cc(-c4ccc(Cl)cc4)[nH]n3)C2)cc1 (centres undefined) — higher, 790 s
- Cc1cccc(C)c1NC(=O)C1CCN(S(C)(=O)=O)c2cc(Cl)ccc2O1 (centres undefined) — higher, 919 s
- COc1ccc(-c2noc(C3CCCN3C(=O)Nc3ccc(OC)c(OC)c3)n2)cc1 (centres undefined) — higher, 952 s
- CCOc1ccc(C(=O)N2C[C@H](c3nc(-c4ccccc4)no3)[C@@H](C)C2)cc1 — higher, 1070 s
- CCN(CC)CCCNC(=O)c1ccc(-c2ccc3c(c2)CCN3C(C)=O)cc1 — higher, 612 s
- Cc1nc(-c2nnn(-c3ccc(Cl)cc3)c2C)sc1C(=O)NC1CCCCC1 — higher, 1160 s
- CCn1cc(S(=O)(=O)Nc2ccc(C)c(C)c2)c2cccnc21 — higher, 887 s
- O=C(NC1CCN(c2cc(-c3ccccc3)[nH]n2)C1)c1ccc(F)c(F)c1 (centres undefined) — higher, 739 s
- Cc1c(-c2noc(-c3ccccc3F)n2)nnn1Cc1ccc(F)cc1 — higher, 1030 s
- CNC(=O)C1CCCN(c2nc3ncn(CC(=O)Nc4ccccc4C)c(=O)c3s2)C1 (centres undefined) — higher, 628 s
- CCOC(=O)Cn1cc(-c2nc(-c3ccc(Br)cc3)no2)ccc1=O — higher, 1050 s
- Cc1ccc(CN2C[C@@H](CO)[C@H](c3nc(C)no3)C2)cc1 — lower, 592 s
- CC(=O)N1CCN(S(=O)(=O)c2ccc3c(c2)OCCCO3)CC1 — higher, 641 s
- Cc1cc(=O)n(CC(=O)N2CCN(c3ccc(F)cc3)CC2)c(N2CCc3ccccc3C2)n1 — higher, 799 s
- COc1ccc(S(=O)(=O)N2CCCC(C(=O)Nc3ccc(C(N)=O)cc3)C2)cc1OC (centres undefined) — higher, 682 s
- CN(C)C(=O)c1ccc(N2CCc3ccccc32)s1 — higher, 907 s
- CN(C(=O)c1nc(N2CCSCC2)c2cnn(C)c2n1)c1cccc(Cl)c1 — higher, 842 s
- c1cn(Cc2nc(-c3ccc4c(c3)OCO4)no2)cn1 — higher, 605 s
- CCSc1ccccc1C(=O)Nc1ccc(-c2nc(C)no2)cc1 — higher, 878 s
- O=C(NCc1cc(F)cc(F)c1)C1CC(=O)N(c2ccc3c(c2)CCN3C(=O)C2CC2)C1 (centres undefined) — higher, 767 s
- CCOC(=O)c1[nH]c(C)c(CN(CC2CCCO2)C(=O)c2ccc(Cl)cc2)c1C (centres undefined) — higher, 1000 s
- CC(C)N1CCN(c2cc(-c3nc(-c4cccc(F)c4)no3)c3ccccc3n2)CC1 — higher, 890 s
- O=C(CSc1ccc(-c2ccc(-n3ccnc3)cc2)nn1)NCc1ccco1 — lower, 554 s
- O=C(Nc1nnc(Cc2ccccc2)s1)C1CC(=O)N(c2n[nH]c3cccc(F)c23)C1 (centres undefined) — higher, 745 s
- Cc1ccc(-c2c(C#N)c(N)nc(SCC(=O)NCc3ccccc3)c2C#N)cc1 — higher, 844 s
- CCCn1cc(CCNS(=O)(=O)c2c(C)c(C)cc(C)c2C)c2cccnc21 — higher, 1060 s
- Cc1ccc(-c2ccnc3c(C(=O)NCCc4c[nH]c5ccccc45)cnn23)cc1C — higher, 1070 s
- CCOc1ccccc1NC(=O)N1CCCC(Cn2cnc3cccnc32)C1 (centres undefined) — higher, 723 s
- CN1C(=O)c2cc(C(=O)Nc3cccc(Cl)c3)nn2CC1(C)C(=O)NC1CCCCC1 (centres undefined) — higher, 860 s
- O=C(Nc1ccccc1F)N1CC(c2nc(CCOCC3CC3)no2)C1 — higher, 786 s
- CCn1cc(CCNC(=O)CC(C)C)c2cccnc21 — higher, 656 s
- CC(C)c1csc(-c2csc(S(=O)(=O)Nc3ccc(Br)cc3F)c2)n1 — higher, 1200 s
- CCn1c(=O)sc2cc(S(=O)(=O)N3CCC(C(=O)Nc4ncccc4C)CC3)ccc21 — higher, 666 s
- Cc1nc(-c2cc(S(=O)(=O)NCc3cc(F)cc(F)c3)c(C)s2)cs1 — higher, 994 s
